The results in this text go back to ChEMBL document CHEMBL6127064, “Discovery of GNE-6893, a Potent, Selective, Orally Bioavailable Small Molecule Inhibitor of HPK1” (ACS Med Chem Lett, 2024).

As usually defined, the IC50 is the point on the concentration scale where inhibition reaches its midpoint. One may read the half-life as the time in which the quantity being followed falls by half. For orientation: clearance means the volume of plasma or blood freed of the substance per unit of time. As usually defined, the inhibition is the percentage by which the read-out fell short of the control. A word on the Papp A→B: it is how fast a substance crosses the layer from the apical side. One may read the bioavailability as dose-corrected exposure relative to a reference, in per cent.

Data set [1] addresses TRAF2 and NCK-interacting protein kinase (Homo sapiens, UniProt Q9UKE5). Kind of data set: Inhibition of TNIK (unknown origin).
Data set [2] in a line: Selectivity ratio of IC50 for inhibition of TNIK (unknown origin) to Ki for inhibition of human full length HPK1-T165E/S171E mutant expressed in baculovirus expression system.
Data set [3] has as its target Sodium channel protein type 5 subunit alpha (Homo sapiens, UniProt Q14524). Kind of data set: Inhibition of Nav1.5 (unknown origin).
The nature of data set [4]: Half life in cynomolgus monkey at 0.5 mg/kg, po or 0.5 mg/kg, iv by measured for 24 hrs LC/MS/MS analysis. The note with it: in vivo. In kind it is ADME, organism-based, Macaca fascicularis.
Data set [5] has as its target T1, Mitogen-activated protein kinase kinase kinase kinase 3 (Homo sapiens, UniProt Q8IVH8).
T1 sequence (Q8IVH8 whole entry): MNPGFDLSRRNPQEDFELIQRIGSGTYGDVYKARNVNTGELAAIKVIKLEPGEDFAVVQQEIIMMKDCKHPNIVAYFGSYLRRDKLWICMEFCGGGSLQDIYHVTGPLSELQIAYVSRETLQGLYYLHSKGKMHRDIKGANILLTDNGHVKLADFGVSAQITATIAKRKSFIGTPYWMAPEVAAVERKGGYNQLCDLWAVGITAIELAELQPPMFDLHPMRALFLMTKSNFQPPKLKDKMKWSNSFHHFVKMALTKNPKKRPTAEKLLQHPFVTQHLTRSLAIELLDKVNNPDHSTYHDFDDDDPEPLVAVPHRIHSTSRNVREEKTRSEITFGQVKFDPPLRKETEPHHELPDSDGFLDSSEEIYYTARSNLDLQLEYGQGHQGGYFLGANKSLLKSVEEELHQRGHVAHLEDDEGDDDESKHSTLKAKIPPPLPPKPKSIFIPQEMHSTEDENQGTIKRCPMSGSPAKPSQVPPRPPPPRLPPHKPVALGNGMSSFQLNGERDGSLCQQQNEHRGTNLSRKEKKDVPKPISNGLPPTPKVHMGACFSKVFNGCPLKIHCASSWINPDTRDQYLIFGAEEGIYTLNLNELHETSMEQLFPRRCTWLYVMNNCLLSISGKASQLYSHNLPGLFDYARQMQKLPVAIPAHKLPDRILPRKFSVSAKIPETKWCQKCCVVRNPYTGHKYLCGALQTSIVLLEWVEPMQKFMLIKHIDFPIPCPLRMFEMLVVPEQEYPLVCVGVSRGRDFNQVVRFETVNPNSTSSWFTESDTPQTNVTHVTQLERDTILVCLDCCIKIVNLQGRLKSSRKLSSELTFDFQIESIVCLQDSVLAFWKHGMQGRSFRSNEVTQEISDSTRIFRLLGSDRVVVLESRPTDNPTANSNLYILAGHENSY
Kind of data set: Inhibition of GLK (unknown origin).

Data set [6] is described as follows: Half life in Beagle dog at 0.5 mg/kg, po or 0.5 mg/kg, iv measured for 24 hrs by LC/MS/MS analysis. The note with it: in vivo. In kind it is ADME, organism-based, Canis lupus familiaris.
A short description of data set [7]: Selectivity ratio of IC50 for inhibition of KHS1 (unknown origin) to Ki for inhibition of human full length HPK1-T165E/S171E mutant expressed in baculovirus expression system.
Data set [8] can be described thus: Clearance in Sprague-Dawley rat at 0.5 mg/kg, iv measured for 8 hrs by LC-MS/MS analysis. The settings on record: in vivo. In kind it is ADME, organism-based.
The nature of data set [9]: Protein binding in mouse plasma. In kind it is ADME, cell-free. The settings on record: read-out: PPB (converted).
A short description of data set [10]: Volume of distribution at steady state in cynomolgus monkey at 0.5 mg/kg, po or 0.5 mg/kg, iv measured for 24 hrs by LC/MS/MS analysis. In kind it is ADME, organism-based, Macaca fascicularis. The settings on record: in vivo.
Data set [11] has as its target Sodium-dependent serotonin transporter (Homo sapiens) (UniProt P31645). Kind of data set: Inhibition of 5-HTT (unknown origin) at 10 uM.
Data set [12] concerns the target Voltage-dependent L-type calcium channel subunit alpha-1C (Homo sapiens, UniProt Q13936). Kind of data set: Inhibition of Cav1.2 (unknown origin).
The nature of data set [13]: Protein binding in rat plasma. The note with it: read-out: PPB (converted). It is filed as ADME, cell-free.
Data set [14] in a line: Volume of distribution at steady state in Sprague-Dawley rat at 0.5 mg/kg, iv measured for 8 hrs by LC-MS/MS analysis. It is filed as ADME, organism-based. The settings on record: in vivo, read-out: Vdss.
A short description of data set [15]: Apparent permeability of the compound across apical to basolateral side in dog MDCK1 cells at 10 uM by LC-MS/MS analysis. The note with it: MDCK. It is filed as ADME, cell-based, Canis lupus familiaris.
Data set [16] in a line: Oral bioavailability in C57BL/6 mouse at 25 mg/kg measured for 24 hrs by LC-MS/MS analysis. The settings on record: C57BL/6, mouse, in vivo. In kind it is ADME, organism-based.
For data set [17], the species on record is Homo sapiens. The experiment in a line: Inhibition of benzodiazepine receptor (unknown origin) at 10 uM.
A short description of data set [18]: Protein binding in dog plasma. In kind it is ADME, cell-free, Canis lupus familiaris. The settings on record: read-out: PPB (converted).
Data set [19] addresses Misshapen-like kinase 1 (Homo sapiens, UniProt Q8N4C8). The experiment in a line: Inhibition of MINK1 (unknown origin).

Chain of TRAF2 and NCK-interacting protein kinase (Q9UKE5 whole entry): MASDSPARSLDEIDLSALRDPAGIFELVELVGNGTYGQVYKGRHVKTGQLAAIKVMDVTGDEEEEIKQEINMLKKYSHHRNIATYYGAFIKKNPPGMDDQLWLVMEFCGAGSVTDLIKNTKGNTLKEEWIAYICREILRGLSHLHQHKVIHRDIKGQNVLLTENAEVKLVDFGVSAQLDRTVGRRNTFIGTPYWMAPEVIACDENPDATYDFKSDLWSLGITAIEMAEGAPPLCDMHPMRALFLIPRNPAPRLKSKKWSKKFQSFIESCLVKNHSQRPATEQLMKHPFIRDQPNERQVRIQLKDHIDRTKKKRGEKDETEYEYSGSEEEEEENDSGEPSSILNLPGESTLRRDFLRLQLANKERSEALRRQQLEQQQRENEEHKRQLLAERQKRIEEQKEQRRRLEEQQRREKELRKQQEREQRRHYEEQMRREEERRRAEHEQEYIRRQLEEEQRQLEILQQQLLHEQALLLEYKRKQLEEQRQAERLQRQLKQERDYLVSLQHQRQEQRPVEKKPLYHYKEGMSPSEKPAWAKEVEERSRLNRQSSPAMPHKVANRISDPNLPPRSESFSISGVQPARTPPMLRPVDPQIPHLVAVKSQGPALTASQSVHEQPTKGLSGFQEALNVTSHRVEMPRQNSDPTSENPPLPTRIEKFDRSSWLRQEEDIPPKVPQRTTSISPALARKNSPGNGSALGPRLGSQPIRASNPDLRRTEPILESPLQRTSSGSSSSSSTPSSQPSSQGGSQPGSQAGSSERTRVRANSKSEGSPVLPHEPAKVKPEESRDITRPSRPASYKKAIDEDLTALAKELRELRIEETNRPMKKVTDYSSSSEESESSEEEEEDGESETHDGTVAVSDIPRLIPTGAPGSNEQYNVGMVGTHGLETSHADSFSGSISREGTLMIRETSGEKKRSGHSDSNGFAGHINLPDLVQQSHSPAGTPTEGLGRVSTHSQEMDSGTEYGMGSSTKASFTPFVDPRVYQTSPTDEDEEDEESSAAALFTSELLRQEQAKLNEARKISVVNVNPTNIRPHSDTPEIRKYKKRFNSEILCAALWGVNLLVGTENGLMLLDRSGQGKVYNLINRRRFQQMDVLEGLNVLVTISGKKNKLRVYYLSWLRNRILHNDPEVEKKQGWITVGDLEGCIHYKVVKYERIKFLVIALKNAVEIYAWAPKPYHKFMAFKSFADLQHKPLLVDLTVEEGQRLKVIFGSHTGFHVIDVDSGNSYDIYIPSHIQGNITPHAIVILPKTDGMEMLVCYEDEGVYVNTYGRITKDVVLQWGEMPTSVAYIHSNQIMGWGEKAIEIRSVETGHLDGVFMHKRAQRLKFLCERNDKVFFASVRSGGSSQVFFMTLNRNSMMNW
Chain of Misshapen-like kinase 1 (Q8N4C8 whole entry): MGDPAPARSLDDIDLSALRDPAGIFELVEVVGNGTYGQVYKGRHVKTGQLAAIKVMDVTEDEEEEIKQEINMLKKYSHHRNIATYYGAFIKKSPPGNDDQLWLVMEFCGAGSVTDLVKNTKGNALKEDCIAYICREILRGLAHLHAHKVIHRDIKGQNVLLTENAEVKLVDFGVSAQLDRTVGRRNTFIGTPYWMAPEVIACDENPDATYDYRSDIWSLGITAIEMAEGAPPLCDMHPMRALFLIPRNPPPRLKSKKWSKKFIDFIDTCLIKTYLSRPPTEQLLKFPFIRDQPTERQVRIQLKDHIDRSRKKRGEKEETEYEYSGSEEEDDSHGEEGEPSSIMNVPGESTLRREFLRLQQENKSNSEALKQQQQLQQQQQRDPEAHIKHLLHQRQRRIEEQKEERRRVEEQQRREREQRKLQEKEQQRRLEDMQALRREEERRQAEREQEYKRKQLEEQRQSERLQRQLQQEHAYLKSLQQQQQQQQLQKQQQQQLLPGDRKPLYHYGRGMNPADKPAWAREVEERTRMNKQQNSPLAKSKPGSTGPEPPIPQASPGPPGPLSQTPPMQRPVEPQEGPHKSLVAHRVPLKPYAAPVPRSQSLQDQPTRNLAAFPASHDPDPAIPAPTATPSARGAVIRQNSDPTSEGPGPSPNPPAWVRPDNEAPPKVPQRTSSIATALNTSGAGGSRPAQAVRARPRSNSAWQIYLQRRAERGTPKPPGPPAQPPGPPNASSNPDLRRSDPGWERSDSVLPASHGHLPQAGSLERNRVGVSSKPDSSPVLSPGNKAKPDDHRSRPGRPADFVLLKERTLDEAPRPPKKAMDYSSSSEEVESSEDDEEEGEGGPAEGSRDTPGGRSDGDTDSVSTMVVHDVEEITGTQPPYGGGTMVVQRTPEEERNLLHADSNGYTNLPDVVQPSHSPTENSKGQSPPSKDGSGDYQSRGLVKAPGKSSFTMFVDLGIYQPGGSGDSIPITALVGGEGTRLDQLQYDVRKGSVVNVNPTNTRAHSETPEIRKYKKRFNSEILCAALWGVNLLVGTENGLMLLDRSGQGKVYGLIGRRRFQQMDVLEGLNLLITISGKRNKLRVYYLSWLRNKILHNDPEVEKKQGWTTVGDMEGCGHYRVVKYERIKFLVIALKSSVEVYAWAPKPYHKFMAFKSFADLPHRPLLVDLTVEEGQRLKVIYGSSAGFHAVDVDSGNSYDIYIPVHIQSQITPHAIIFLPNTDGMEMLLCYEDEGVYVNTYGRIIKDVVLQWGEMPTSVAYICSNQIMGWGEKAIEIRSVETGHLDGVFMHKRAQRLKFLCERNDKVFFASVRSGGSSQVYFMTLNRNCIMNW
Chain of Voltage-dependent L-type calcium channel subunit alpha-1C (Q13936 whole entry): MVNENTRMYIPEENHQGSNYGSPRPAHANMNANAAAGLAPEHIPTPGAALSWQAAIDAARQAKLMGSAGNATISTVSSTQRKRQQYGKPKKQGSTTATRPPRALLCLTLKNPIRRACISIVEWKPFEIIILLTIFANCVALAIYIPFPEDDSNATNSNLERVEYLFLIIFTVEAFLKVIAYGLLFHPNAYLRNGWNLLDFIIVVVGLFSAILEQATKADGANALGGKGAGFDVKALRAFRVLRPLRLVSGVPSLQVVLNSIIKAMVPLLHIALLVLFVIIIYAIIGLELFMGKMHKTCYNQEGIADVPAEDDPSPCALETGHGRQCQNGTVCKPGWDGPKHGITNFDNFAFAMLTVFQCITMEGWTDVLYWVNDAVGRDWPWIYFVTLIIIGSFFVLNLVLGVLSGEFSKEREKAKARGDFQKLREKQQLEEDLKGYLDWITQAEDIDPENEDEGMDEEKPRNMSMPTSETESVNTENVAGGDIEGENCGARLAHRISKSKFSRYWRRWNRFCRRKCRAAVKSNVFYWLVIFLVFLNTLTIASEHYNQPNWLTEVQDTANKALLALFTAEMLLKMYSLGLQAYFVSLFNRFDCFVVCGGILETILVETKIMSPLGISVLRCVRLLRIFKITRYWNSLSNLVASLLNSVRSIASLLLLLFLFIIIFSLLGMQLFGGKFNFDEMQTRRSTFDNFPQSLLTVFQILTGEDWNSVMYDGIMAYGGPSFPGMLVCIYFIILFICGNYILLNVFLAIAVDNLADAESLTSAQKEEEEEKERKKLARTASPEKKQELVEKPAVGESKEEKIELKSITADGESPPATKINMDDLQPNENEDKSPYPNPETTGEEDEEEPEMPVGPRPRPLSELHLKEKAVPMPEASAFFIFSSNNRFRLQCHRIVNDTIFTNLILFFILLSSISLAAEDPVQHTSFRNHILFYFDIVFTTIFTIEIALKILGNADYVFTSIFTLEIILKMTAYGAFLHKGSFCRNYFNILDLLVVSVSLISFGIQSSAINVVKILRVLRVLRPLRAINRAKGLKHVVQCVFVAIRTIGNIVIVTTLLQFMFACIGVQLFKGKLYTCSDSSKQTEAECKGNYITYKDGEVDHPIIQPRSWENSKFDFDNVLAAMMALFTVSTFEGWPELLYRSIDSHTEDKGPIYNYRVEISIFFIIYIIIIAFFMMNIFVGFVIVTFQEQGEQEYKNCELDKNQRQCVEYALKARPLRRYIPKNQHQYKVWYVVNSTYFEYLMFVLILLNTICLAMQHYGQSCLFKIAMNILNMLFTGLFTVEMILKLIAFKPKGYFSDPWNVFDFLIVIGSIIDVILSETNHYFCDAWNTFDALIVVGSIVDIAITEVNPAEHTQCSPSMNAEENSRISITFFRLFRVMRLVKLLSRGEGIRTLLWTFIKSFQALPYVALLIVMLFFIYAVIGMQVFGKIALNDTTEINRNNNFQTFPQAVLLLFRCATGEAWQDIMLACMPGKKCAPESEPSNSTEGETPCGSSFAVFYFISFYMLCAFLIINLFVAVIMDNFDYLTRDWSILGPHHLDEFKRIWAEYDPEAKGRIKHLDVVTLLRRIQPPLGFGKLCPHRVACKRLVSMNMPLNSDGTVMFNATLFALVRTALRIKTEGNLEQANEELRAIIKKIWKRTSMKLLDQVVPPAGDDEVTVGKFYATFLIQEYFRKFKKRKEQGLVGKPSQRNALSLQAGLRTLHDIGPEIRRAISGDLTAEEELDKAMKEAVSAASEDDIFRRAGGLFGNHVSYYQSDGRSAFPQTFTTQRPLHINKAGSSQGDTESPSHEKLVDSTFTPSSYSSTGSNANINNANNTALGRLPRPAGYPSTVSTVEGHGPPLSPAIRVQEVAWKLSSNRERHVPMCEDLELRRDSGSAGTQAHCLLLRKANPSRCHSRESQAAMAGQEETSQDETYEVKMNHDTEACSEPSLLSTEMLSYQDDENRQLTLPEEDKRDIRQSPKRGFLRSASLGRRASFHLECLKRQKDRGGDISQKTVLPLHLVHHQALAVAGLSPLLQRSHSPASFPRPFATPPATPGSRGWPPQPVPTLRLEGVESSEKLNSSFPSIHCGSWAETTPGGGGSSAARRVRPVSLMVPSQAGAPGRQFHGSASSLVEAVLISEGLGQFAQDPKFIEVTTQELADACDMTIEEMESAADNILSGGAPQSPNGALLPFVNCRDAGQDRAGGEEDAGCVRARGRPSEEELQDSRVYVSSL

As for `Cc1c(-c2cc3cc(NC(=O)O[C@H]4COC[C@@H]4C)ncc3c(N)c2F)cnc2c1NCCO2`, the 50% inhibitory concentration (IC50) in [1] is 2.3 nM; in [3] it was above 10000 nM; in data set [5] it was 0.72 nM; in data set [12] it was above 10000 nM; in [19], 3.6 nM. The Ratio in data set [2] is above 120; in data set [7], above 170. For the same compound, the half-life was 1.9 h in data set [4] and 2.5 h in [6]. This compound also yielded a clearance in data set [8] of 39 mL/min/kg. Further, the fraction unbound was 0.053 in data set [9], 0.094 in data set [13] and 0.142 in data set [18]. In addition, the Vdss in data set [10] is 1.9 L/kg. Moreover, the inhibition in [11] and in [17] was 50% each time. Further, the Vd in [14] turned out to be 2.2 L/kg. Further, the Papp A→B at 10 µM in data set [15] was determined as 15 ×10⁻⁶ cm/s. Further, the bioavailability in data set [16] was found to be 37%.
